# Test results published in patent US20110136880A1, “Latrunculin-Based Macrolides and Their Uses” (priority 2009, published 2011).
# Assays:
# [1] = system: prostate cancer cells PC-3M-CT+; settings: 100 nM dose; without cytotoxicity; cited from earlier work
# [2] = system: MDA-MB-231; test: MTT proliferation assay, MDA-MB-231; assay type: cell-based, human
# Source text: (§1) The antiproliferative and anti-invasive activities of compounds 1-14 were quantified using MTT and cell invasion assay kits, respectively. Latrunculin A (compound 1) was used as a positive control in all biological assays, because it is known to be an actin polymerization inhibitor, with cytotoxic, antiproliferative, and anti-invasive activities. The 3-[4,5-dimethylthiazol-2-yl]-2,5-diphenyl tetrazolium bromide (MTT) assay selectively detects living cells in a quantitative, colorimetric fashion, based on a living cell's ability to reduce MTT to an insoluble, purple formazan dye. The MTT assay is routinely used to assess cytotoxicity and proliferation inhibition activities. The antiproliferative activities of compounds 1-14 were measured against two human mammary gland adenocarcinoma cell lines, MCF7 and MDA-MB-231, and against human prostate cancer cells PC-3 at five different doses (0.1, 0.5, 1, 10, and 50 μM). While many of the semisynthetic latrunculins had similar activity levels, some had greater activity than compound 1. […] Although the MDA-MB-231 cells were more resistant than MCF7 against most latrunculin derivatives tested, compound 14 had potent activity against both cell lines.
# (§2) MTT Proliferation Assay. The growth of MCF7, MDA-MB-231, and PC-3 cancer cell lines was measured using an MTT kit (TACS™, TREVIGEN®, Inc.). Exponentially growing cells were plated in a 96-well plate at a density of 8×10^3 cells per well, and allowed to attach for 24 h. Complete growth medium was then replaced with 100 μL of RPMI serum-free medium containing various concentrations (50, 10, 1, 0.5, 0.1 μM) of the particular test compound. Culture continued at 37° C. under 5% CO2. After 72 h of culture, the cells were treated with MTT solution (10 μL/well) at 37° C. for 4 h. The color reaction was stopped by adding solubilization/stop solution (100 μL/well). Incubation continued at 37° C. continued to completely dissolve the formazan dye product. Absorbance of the samples was determined at 570 nm with an ELISA plate reader (BioTek, VT). The number of cells per well was calculated against a standard curve that had been prepared by plating various concentrations of cells, as determined by hemocytometer, at the start of each experiment. IC50 for each compound was calculated using a nonlinear regression curve fit of log concentration versus the number of cells/well, using GraphPad Prism 5.0 (GraphPad Software, La Jolla, Calif.).
# [3] = system: breast, CNS, colon, lung, melanoma, ovarian, and renal cancer cells; test: Antiproliferative testing against 60 cell lines (NSC compounds); assay type: cell-based
# [4] = system: PC-3; test: MTT proliferation assay, PC-3; assay type: cell-based, human
# Source text: as §1, §2
# [5] = system: MDA-MB-231 cells; test: Cultrex BME cell invasion assay; assay type: cell-based, human
# Experimental: The anti-invasive activities of compounds 1-14 were measured using a 96 well basement membrane extract (BME) cell invasion assay kit against the highly metastatic MDA-MB-231 cells. This assay employs a simplified Boyden Chamber with a polyethylene terephthalate membrane (8 μm pore size). Cell invasion was quantified using calcein-acetomethylester (calcein-AM). Cells internalize calcein-AM; intracellular esterases then cleave the acetomethylester moiety to generate free calcein. Free calcein fluoresces brightly. This fluorescence may be used to quantify the number of cells that have invaded across the BME. To correlate the anti-invasive activities of the latrunculin A derivatives with their actin-disrupting activities, compounds 1-14 were each tested at non-toxic concentrations. […] Accordingly, all compounds were tested at 0.1, 0.5, and 1.0 μM. Compound 3 killed 17% of MDA-MB-231 cells at 1.0 μM, while the same dose of compound 3 inhibited 95% of MDA-MB-231 cells' invasion. […] The anti-invasive activities of compounds 1-14 are attributed primarily to the inhibition of actin polymerization, not to cell death per se.
# Cultrex® Cell Invasion Assay. Anti-invasive activities were measured using Trevigen's Cultrex® Cell Invasion Assay as described in K. Tamilarasan et al., BMC Cell Biol. 2006, 7, 17-30; and P. Borghesani et al., Development. 2002, 6, 1435-1442. About 50 μL of basement membrane extract (BME) coat was added to each well. After incubation for 4 h at 37° C. under 5% CO2, 50,000 MDA-MB-231 cells in 50 μL of serum free RPMI medium were added to each well in the top chamber, along with the test compound at one of several concentrations (0.1, 0.5, 1 μM). About 150 μL of RPMI medium was added to the lower chamber in 10% FBS and penicillin/streptomycin, using fibronectin ([…]) and N-formyl-met-leu-phe (10 nM) as chemoattractants. Cells were allowed to migrate to the lower chamber at 37° C. under 5% CO2. After 24 h, the top and bottom chambers were aspirated and washed with the washing buffer that had been supplied with the kit. About 100 μL of Cell Dissociation Solution/Calcein-AM solution was added to the bottom chamber, and the cells were incubated at 37° C. under CO2 for 1 h. Briefly, the cells internalize calcein-AM, and then the intracellular esterases cleave the AM moiety to generate free calcein. […] The number of cells that had invaded through the BME coat was calculated using a standard curve.
# [6] = target: T1, pyrene-conjugated actin (Oryctolagus cuniculus, UniProt P68135); test: Pyrene actin polymerization assay; assay type: biochemical
# T1 construct: purchased Cytoskeleton, Denver, Colo
# Experimental: An actin polymerization kit was used to assess the direct actin-binding activity of each analogue at two concentrations: 100 nM and 1 μM. This kit is based on the enhanced fluorescence of pyrene-conjugated actin that occurs during polymerization. When pyrene-G-actin (monomer) forms pyrene-F-actin, fluorescence is enhanced. The enhanced fluorescence is used to follow polymerization over time. Table 2 lists activities as the percentage of actin polymerization inhibition, compared to the negative vehicle control (DMSO), along with calculated IC50.
# Pyrene-Actin Polymerization Assays. Actin polymerization assays were performed in accordance with the manufacturer's instructions (Cytoskeleton, Denver, Colo.). Briefly, […] final concentration of monomeric actin (1:10 pyrene labeled) was incubated on ice for 10 min with one of various concentrations of one of the latrunculin derivatives. Samples were then equilibrated 10 min in an ELISA plate reader (BioTek, VT), after which polymerization was induced by adding KCl, MgCl2, and ATP. Compounds 1-14 were tested at 0.1, 0.5, 1.0, and 10 μM. The IC50 for each compound was calculated using GraphPad Prism 5.0.
# Pyrene-actin polymerization assays. Actin polymerization inhibitory activity is assessed using the Cytoskeleton Actin Polymerization kit (Cytoskeleton, Denver, Colo.). Briefly, […] (final concentration) of monomeric actin (1:10 pyrene labeled) is incubated on ice for 10 min with one of various concentrations of the test latrunculin compound. Samples are equilibrated 10 min in an ELISA plate reader (BioTek, VT), after which polymerization is induced by adding KCl, MgCl2, and ATP. Compounds are tested at 0.1, 0.5, 1.0, and 10 μM. The IC50 for each compound is calculated using GraphPad Prism 5.0.
# [7] = system: MCF7; test: MTT proliferation assay, MCF7; assay type: cell-based, human
# Source text: as §1, §2
# [8] = system: alkaline phosphatase in HuADSC cells; test: Alkaline phosphatase in HuADSC cells; assay type: cell-based
# [9] = system: microvessel density marker CD31 in endothelial colony forming cells (ECFCs); test: Angiogenesis inhibition assay (CD31 in ECFCs); assay type: cell-based
# Experimental: Effects on Angiogenesis. Angiogenesis inhibition assays were conducted using endothelial colony forming cells (ECFCs). The microvessel density marker CD31 was quantified using confocal laser scanning microscopy and immunohistochemistry.
# [10] = system: alkaline phosphatase in C2C12 cells; test: Alkaline phosphatase in C2C12 cells (Wnt pathway); assay type: cell-based
# Source text: (§3) Effects on Wnt/β-catenin. […] These two compounds affected both alkaline phosphatase and β-catenin levels in C2C12 cells.
# [11] = system: array of kinases; test: Kinase profiling; assay type: binding; settings: any kinase tested
# Experimental: Latrunculins B and H (compounds 20 and 14, respectively) were tested in a panel of assays including ApoE secretion, anti-angiogenesis, G2/M, Wnt pathway, insulin secretion, and an array of kinase profiling. The G2/M assays include HeLa cell proliferation, apoptosis, DNA content, and condensation, cyclin B, and phosphor-histone H3. […] Alkaline phosphatases may perhaps be a target of the anti-invasive latrunculin 11.
# [12] = system: β-catenin in C2C12 cells; test: Wnt/β-catenin signaling, β-catenin levels in C2C12 cells; assay type: cell-based
# Source text: as §3
# [13] = system: HeLa cells; test: HeLa cell G2/M assays; assay type: cell-based; settings: less active than compound 11
# Source text: This assay measures HeLa cell proliferation, apoptosis, DNA content and condensation, cyclin B, and phosphor-histone H3.
compound,measurement,setting,value
latrunculin A 17-O-phenyl carbamate [Compound 18],migration of PC-3M-CT+ cells,[1],inhibits the migration
"C/C1=C/C(=O)O[C@@H]2C[C@@H](CC[C@H](C)/C=C\C=C\CC1)O[C@@](OCCc1ccccc1)([C@@H]1CSC(=O)N1)C2 [Compound 3, 17-O-Phenylethyllatrunculin A]",MDA-MB-231 cells killed,[2]; 1.0 μM,17%
same,IC50,"[2]; Homo sapiens, MDA-MB-231, MTT, 72 h, mean ± SEM, read-out: IC50 (μM) MDA-MB-231",2.71 ± 0.52 µM
same,number of the 60 cell lines tested with antiproliferative activity,[3]; dose of 10 μM,18
same,log10GI50,"[3]; five-points dose-response, range over active cell lines",−7.02 to −7.90
same,IC50,"[4]; Homo sapiens, PC-3, MTT, 72 h, read-out: IC50 (μM) PC-3",1.22 µM
same,fold increase in activity against PC-3 versus compound 1,[4]; relative to compound 1,3.2 fold
same,fold more active against cell invasion than latrunculin A (compound 1),[5]; 0.5 μM,3.3 fold
same,inhibition at 1 µM,"[5]; Homo sapiens, MDA-MB-231, 1.0 μM",95%
same,inhibition at 0.1 µM,"[6]; 100 nM, compared to vehicle control (DMSO), read-out: Actin polymerization inhibition (%) 100 nM",31%
same,inhibition at 1 µM,"[6]; 1 μM, compared to vehicle control (DMSO), read-out: Actin polymerization inhibition (%) 1 μM",94%
same,IC50,"[6]; mean ± SEM, triplicate",184 ± 48 nM
same,IC50,"[7]; Homo sapiens, MCF7, MTT, 72 h, mean ± SEM, read-out: IC50 (μM) MCF7",0.1 ± 0.07 µM
same,fold increase in activity against MCF7 versus compound 1,[7]; relative to compound 1,4.8 fold
"C/C1=C/C(=O)O[C@@H]2C[C@@H](CC[C@H](C)/C=C\CC1)O[C@@](O)([C@@H]1CSC(=O)N1)C2 [Compound 20, latrunculin B]",EC50,[8],141 nM
same,inhibition of CD31 in ECFCs,[9]; 2 μM,100%
same,inhibition of CD31 in ECFCs,[9]; 10 μM,100%
same,IC50,[9]; read-out: IC50 CD31 in ECFCs,43 nM
same,EC50,[10],91 nM
same,affinity toward kinases,[11],Neither compound 20 nor compound 14 showed affinity toward any kinase tested
same,Wnt/β-catenin signaling,[12],strongly inhibited
same,activity in G2_M assays compared with nocodazole,[13],greater activity than did nocodazole
